Read-outs that look alike come from different tables or passages of the source.
Experiment: Plasma levels of lasofoxifene after a single oral dose in healthy postmenopausal women (LC-MS-MS)
Type: in vivo, human
Details: for concentration at 1 h: 1 hour after dosing; for concentration at 2 h: 2 hours after dosing; for concentration at 4 h: 4 hours after dosing; for concentration at 8 h: 8 hours after dosing; for concentration at 12 h: 12 hours after dosing; for concentration at 24 h: 24 hours after dosing; for concentration at 48 h: 48 hours after dosing; for concentration at 72 h: 72 hours after dosing; for concentration at 120 h: 120 hours after dosing; for concentration at 0.5 h: .5 hours after dosing
Description: A dose of 0.8 mg of lasofoxifene was administered to 12 healthy, postmenopausal women and blood samples were analyzed periodically as shown in Table 1.
A 1.0 ml sample of human plasma was analyzed for lasofoxifene according to CEDRA's Procedure TM-234 (CEDRA's address). Internal standard used for this procedure was a pentadeuterated lasofoxifene. The plasma sample containing lasofoxifene and the internal standard was extracted with MTBE. Following centrifugation, the organic layer was transferred to another tube and evaporated. An aliquot of the reconstituted sample extract was then injected onto a SCIEX API^III-PLUS LC-MS-MS instrument equipped with a short ion exchange HPLC column. Peak areas of the m/z 414→97.9 daughter ion of lasofoxifene were measured against the peak areas of the mlz 419→97.9 daughter of the internal standard. Quantitation was performed using a 1/x weighted least squares regression line generated from spiked plasma calibration samples.
The procedure of Example 1 was repeated with a dose of 10-mg lasofoxifene administered to 8 healthy postmenopausal women. Plasma levels for lasofoxifene are shown for 672 hours in Table 2.

[1] = female, human, plasma, single oral 10 mg dose, healthy post menopausal women, read-out: Mean plasma concentration, na Lasofoxifene per ml plasma
[2] = female, human, plasma, single oral dose 0.8 mg, healthy post menopausal women, read-out: Mean plasma concentration, ng Lasofoxifene per ml plasma

Question: Which “duration of therapeutically effective dose (level)” value (doses from 10 to 20 mg, see Table 2) does the source give for `Oc1ccc2c(c1)CC[C@H](c1ccccc1)[C@@H]2c1ccc(OCCN2CCCC2)cc1` [lasofoxifene, (−)-cis-6-phenyl-5-[4-(2-pyrrolidin-1-yl-ethoxy)-phenyl]-5,6,7,8-tetrahydronaphthalen-2-ol, D-tartrate] here?
Answer: up to 30 days

Question: What about the concentration at 168 h (female, human, plasma, oral, single dose of 0.8 mg, healthy women, after 168 hours (1 week), read-out: blood level (concentration)) of the same compound?
Answer: ~0.3 ng/mL

Question: What about the concentration at 0 h (female, human, plasma, single oral 10 mg dose, healthy post menopausal women, 0 hours after dosing, read-out: Mean plasma concentration, na Lasofoxifene per ml plasma) of the same compound?
Answer: 0 ng/mL

Question: And the concentration at 1 h [1]?
Answer: 4.42 ng/mL

Question: What about the concentration at 2 h [1] of the same compound?
Answer: 5.64 ng/mL

Question: And the concentration at 4 h [1]?
Answer: 8.46 ng/mL

Question: And the concentration at 8 h [1]?
Answer: 10.4 ng/mL

Question: What about the concentration at 12 h [1] of the same compound?
Answer: 10.2 ng/mL

Question: What about the concentration at 24 h [1] of the same compound?
Answer: 8.35 ng/mL

Question: What about the concentration at 48 h [1] of the same compound?
Answer: 7.16 ng/mL

Question: And the concentration at 72 h [1]?
Answer: 5.97 ng/mL

Question: What about the concentration at 120 h [1] of the same compound?
Answer: 4.56 ng/mL

Question: And the concentration at 168 h (female, human, plasma, single oral 10 mg dose, healthy post menopausal women, 168 hours after dosing, read-out: Mean plasma concentration, na Lasofoxifene per ml plasma)?
Answer: 3.74 ng/mL

Question: And the concentration at 216 h (female, human, plasma, single oral 10 mg dose, healthy post menopausal women, 216 hours after dosing, read-out: Mean plasma concentration, na Lasofoxifene per ml plasma)?
Answer: 2.88 ng/mL

Question: What about the concentration at 264 h (female, human, plasma, single oral 10 mg dose, healthy post menopausal women, 264 hours after dosing, read-out: Mean plasma concentration, na Lasofoxifene per ml plasma) of the same compound?
Answer: 2.27 ng/mL

Question: What about the concentration at 336 h (female, human, plasma, single oral 10 mg dose, healthy post menopausal women, 336 hours after dosing, read-out: Mean plasma concentration, na Lasofoxifene per ml plasma) of the same compound?
Answer: 1.6 ng/mL

Question: What about the concentration at 408 h (female, human, plasma, single oral 10 mg dose, healthy post menopausal women, 408 hours after dosing, read-out: Mean plasma concentration, na Lasofoxifene per ml plasma) of the same compound?
Answer: 1.05 ng/mL

Question: What about the concentration at 480 h (female, human, plasma, single oral 10 mg dose, healthy post menopausal women, 480 hours after dosing, read-out: Mean plasma concentration, na Lasofoxifene per ml plasma) of the same compound?
Answer: 0.75 ng/mL

Question: What about the concentration at 576 h (female, human, plasma, single oral 10 mg dose, healthy post menopausal women, 576 hours after dosing, read-out: Mean plasma concentration, na Lasofoxifene per ml plasma) of the same compound?
Answer: 0.5 ng/mL

Question: And the concentration at 672 h (female, human, plasma, single oral 10 mg dose, healthy post menopausal women, 672 hours after dosing, read-out: Mean plasma concentration, na Lasofoxifene per ml plasma)?
Answer: 0.31 ng/mL

Question: And the concentration at 0.5 h [1]?
Answer: 2.33 ng/mL

Question: What about the concentration at 1 h [2] of the same compound?
Answer: 0.32 ng/mL

Question: What about the concentration at 2 h [2] of the same compound?
Answer: 0.37 ng/mL

Question: What about the concentration at 4 h [2] of the same compound?
Answer: 0.46 ng/mL

Question: What about the concentration at 8 h [2] of the same compound?
Answer: 0.72 ng/mL

Question: And the concentration at 12 h [2]?
Answer: 0.73 ng/mL

Question: What about the concentration at 24 h [2] of the same compound?
Answer: 0.64 ng/mL

Question: What about the concentration at 48 h [2] of the same compound?
Answer: 0.56 ng/mL

Question: What about the concentration at 72 h [2] of the same compound?
Answer: 0.49 ng/mL

Question: What about the concentration at 120 h [2] of the same compound?
Answer: 0.4 ng/mL

Question: And the concentration at 168 h (female, human, plasma, single oral dose 0.8 mg, healthy post menopausal women, 168 hours after dosing, read-out: Mean plasma concentration, ng Lasofoxifene per ml plasma)?
Answer: 0.34 ng/mL

Question: And the concentration at 0.5 h [2]?
Answer: 0.13 ng/mL

Question: And the initial blood level (single dose of 0.8 mg, healthy women, within a few hours)?
Answer: 0.7 ng/mL

Source: US6436977B1, “Dosing regimens for lasofoxifene” (Pfizer Inc., priority 1999, dated 2002)
